Like-named read-outs stand apart in the source and are kept apart here.
What was measured:
[1] = target: neuraminidase of A/Uruguay/716/07 (H3N2) (Influenza A virus, UniProt I6VF55); format: biochemical; conditions: read-out: Inhibition of Neuraminidase, IC50
[2] = target: neuraminidase of A/Brisbane/59/07 (H1N1) (Influenza A virus, UniProt D5F1R0); test: biochemical; format: biochemical
[3] = target: neuraminidase of A/Solomon Islands/3/06 (H1N1) (Influenza A virus, UniProt B4URD9); format: biochemical; conditions: read-out: Inhibition of Neuraminidase, IC50
[4] = target: neuraminidase of B/Malaysia/5206/04 (Influenza B virus, UniProt Q38G90); test: Neuraminidase inhibition, fluorogenic MUNANA substrate, purified intact virions; format: biochemical; conditions: read-out: Inhibition of Neuraminidase, IC50
[5] = tested on: N2 NAs; conditions: read-out: inhibition (IC50) of N2 NAs; range over N2 NAs; ref [28]; cited from earlier work
[6] = tested on: type B NAs; conditions: read-out: inhibition (IC50) of type B NAs; range over type B NAs; ref [28]; cited from earlier work

Compound	improved N1 NA activity compared to the parent 3 [2]	IC50 [2] [µM]	also measured
4-(2,2-Bis(hydroxymethyl)-3-((3-pentyloxy)methyl)-5-oxopyrrolidin-1-yl)benzoic Acid [Compound 10c]	80–100 fold	–	IC50 [1]: 0.5 ± 0.1 µM; IC50 ([2]; read-out: Inhibition of Neuraminidase, IC50): 1 ± 0.21 µM; IC50 [3]: 0.8 ± 0.07 µM; IC50 [4]: 30 ± 1.4 µM
CCC(CC)O[C@@H]1C=C(C(=O)O)C[C@H](N)[C@H]1NC(C)=O [Compound 1c, oseltamivir carboxylate]	–	–	IC50 [5]: 0.00068 to 0.00178 µM; IC50 [6]: 0.005 to 0.0243 µM
CC(C)OCc1cc(C(=O)O)ccc1N1C(=O)CCC1(CO)CO [Compound 10a, 4-(2,2-Bis(hydroxymethyl)-5-oxopyrrolidin-1-yl)-3-(isopropoxymethyl)benzoic Acid]	–	> 10000	–
CCC(C)OCc1cc(C(=O)O)ccc1N1C(=O)CCC1(CO)CO (centres unmarked) [Compound 10b, 4-(2,2-Bis(hydroxymethyl)-5-oxopyrrolidin-1-yl)-3-(2-butoxymethyl)benzoic Acid]	–	16 ± 2.1	–
CCC(=Cc1cc(C(=O)O)ccc1N1C(=O)CCC1(CO)CO)CC [Compound 13b, 4-(2,2-Bis (hydroxymethyl)-5-oxopyrrolidin-1-yl)-3-(2-ethylbut-1-enyl)benzoic Acid]	30–40 fold	2.4 ± 0.9	–
CC(C)Cc1cc(C(=O)O)ccc1N1C(=O)CCC1(CO)CO [Compound 13c, 4-(2,2-Bis (hydroxymethyl)-5-oxopyrrolidin-1-yl)-3-isobutylbenzoic Acid]	–	70 ± 7.8	–
CCC(CC)Cc1cc(C(=O)O)ccc1N1C(=O)CCC1(CO)CO [Compound 14b, 4-(2,2-Bis (hydroxymethyl)-5-oxopyrrolidin-1-yl)-3-(2-ethylbutyl)benzoic Acid]	30–40 fold	1.6 ± 0.6	–

From article PMC3401542 (Bioorganic & medicinal chemistry, 2012)
